{"source": "paper PMC6361926", "about": "“A chemical approach for global protein knockdown from mice to non-human primates” (Cell Discovery, 2019)", "biological_target": "Bruton's tyrosine kinase (BTK) (Mus musculus, UniProt P35991)", "sequence (P35991 2-659)": "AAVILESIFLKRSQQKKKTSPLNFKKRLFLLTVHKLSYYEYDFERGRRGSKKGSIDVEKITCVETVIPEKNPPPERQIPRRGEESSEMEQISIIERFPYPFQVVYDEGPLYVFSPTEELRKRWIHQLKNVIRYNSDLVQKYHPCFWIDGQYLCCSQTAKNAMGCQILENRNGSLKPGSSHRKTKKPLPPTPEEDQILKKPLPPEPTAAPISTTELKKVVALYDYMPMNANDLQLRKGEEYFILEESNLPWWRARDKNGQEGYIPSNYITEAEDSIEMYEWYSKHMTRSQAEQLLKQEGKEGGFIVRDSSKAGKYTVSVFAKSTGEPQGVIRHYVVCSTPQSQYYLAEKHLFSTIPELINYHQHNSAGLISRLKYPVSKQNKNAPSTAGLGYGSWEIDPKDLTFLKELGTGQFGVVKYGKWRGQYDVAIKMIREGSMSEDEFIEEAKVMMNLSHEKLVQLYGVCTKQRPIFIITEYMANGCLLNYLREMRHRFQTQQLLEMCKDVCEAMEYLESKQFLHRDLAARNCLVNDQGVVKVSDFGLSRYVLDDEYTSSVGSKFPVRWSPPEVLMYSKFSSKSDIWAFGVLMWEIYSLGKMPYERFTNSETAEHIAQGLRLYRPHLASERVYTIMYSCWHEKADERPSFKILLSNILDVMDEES", "assay": "PROTAC degradation of BTK in mouse tissues in vivo, immunoblot", "assay_type": "cell-based"}
{"smiles": "Nc1ncnc2c1c(-c1ccc(Oc3ccccc3)cc1)nn2[C@@H]1CCCN(C(=O)CCCc2cn(CCOCCOCCNc3cccc4c3C(=O)N(C3CCC(=O)NC3=O)C4=O)nn2)C1", "note": "(stereo partly shown) [P13IS]", "values": [{"measurement": "PROTAC degradation of BTK in mouse tissues in vivo, immunoblot", "value": "BTK in adipose, thymus, abdominal lymph node, and axillary lymph node was degraded efficiently"}]}
